Reference: patent US20210386367A1, “DEVICES AND SYSTEMS FOR GASTROINTESTINAL MICROBIOME DETECTION AND MANIPULATION” (Progenity, Inc., priority 2018, published 2021)
Like-named read-outs stand apart in the source and are kept apart here.

Legend:
[1] = system: Streptococcus spp. clinical isolates; assay: MIC distribution against clinical isolates; format: cell-based; details: 54 Streptococcus spp. isolates
Source text: (n=19 S. pyogenes, n=20 S. agalactiae and n=20 Viridans group Streptococcus) clinical isolates (μg/mL).
(§1) As used herein, “minimum inhibitory concentration” or “MIC” refers to the lowest concentration of an antimicrobial agent, for example, an antimicrobial agent as described herein, required to inhibit the growth of an organism. […] “MIC90” represents the MIC value at which ≥90% of the strains within a test population are inhibited; the 90th percentile.
(§2) Many susceptibility testing methods are known in the art and can be used as described herein (see, e.g., Jorgensen and Ferraro (2009) Clinical Infectious Diseases 49:1749-1755; and Maurer et al. (2017) Infectious Disease Reports 9:6839; the entire contents of each of the foregoing are incorporated herein by reference). For example, antimicrobial susceptibility can be determined using conventional culture based methods such as the broth or agar dilution test. In these dilution tests, the bacterial isolate of interest is inoculated onto different media that include serial dilutions of an antimicrobial agent, and incubated under appropriate conditions (e.g., overnight at 37° C.) to allow for growth to occur. Following the incubation period, the media is examined to determine bacterial growth. The lowest concentration of antibiotic that prevents growth represents the minimal inhibitory concentration (MIC). Broth dilution tests can be miniaturized and mechanized allowing for reproducibility and high throughput.

Streptococcus pyogenes = assay: Broth microdilution MIC, 19 clinical isolates; format: cell-based
Procedure: (§3) Minimal inhibitory concentration (MIC) values were determined by broth microdilution or agar dilution in accordance with guidelines from the Clinical and Laboratory Standards Institute (CLSI; (1) “Methods for Dilution Antimicrobial Susceptibility Tests for Bacteria That Grow Aerobically; Approved Standard; 11th ed.” CLSI standard M07-A11, 2018; (2) “Performance Standards for Antimicrobial Susceptibility Testing; Twenty-Eighth Informational Supplement,” CLSI document M100-S28, 2018; and (3) “Methods for Antimicrobial Susceptibility Testing of Anaerobic Bacteria; Approved Standard—Eighth Edition,” CLSI document M11-A8, 2012).
(§4) Tested aerobically by broth microdilution: • Escherichia coli, n=50 • Klebsiella spp., n=50 • Pseudomonas aeruginosa, n=50 • Streptococcus spp., n=50 • Staphylococcus aureus, n=50 • Enterococcus faecalis, n=50 • Enterobacter aerogenes, n=50 • Proteus mirabilis, n=50
(§5) Broth microdilution testing of aerobic bacteria was conducted in cation-adjusted Mueller Hinton broth (MHBII). For testing streptococci, lysed horse blood (LHB) was added to MHBII broth at a final concentration of 3%. Where LHB was used, it was added after filtering.
(§6) Broth microdilution susceptibility testing in 96-well microplates was conducted in accordance with CLSI methods (1) and (2). Automated liquid handlers were used to conduct serial dilutions and liquid transfers, including the Multidrop 384 (Labsystems, Helsinki, Finland), Biomek 2000, and the Biomek FX (Beckman Coulter, Fullerton, Calif.). All wells in columns 2 through 12 of a standard 96-well microdilution plate (Costar 3795) were filled with 150 μL of the appropriate diluent. Then, 300 μL of the test agents were added to the wells of column 1 of the plates at 100× the highest final concentration to be tested. Serial two-fold dilutions were made across the rows through column 11 using the Biomek 2000. The wells of column 12 contained no drug and served as the growth control wells. This plate served as the “mother plate” from which MIC assay plates or “daughter plates” were made.
(§7) The daughter plates were loaded with 190 μL per well of the appropriate medium using the Multidrop 384. The daughter plates were created using the Biomek FX which transferred 2 μL of drug solution from each well of a mother plate to each corresponding well of the daughter plate in a single step. A standardized inoculum of each test organism was prepared per CLSI methods (1) to equal a 0.5 McFarland standard, followed by a dilution of 1:20 for aerobes and 1:10 for anaerobes. The plates were then inoculated with 10 μL of the diluted inoculum using the Biomek 2000 from low to high drug concentration, resulting in a final concentration of approximately 5×10^5 CFU/mL per well. An un-inoculated plate was incubated in parallel for each medium for the purpose of assessing solubility of the drug in the test media.
(§8) Inoculated plates were stacked 3 or 4 high, covered with a sterile lid on the top plate, placed into boxes with CO2 planchets (streptococci) or plastic bags (all other isolates). Plates were incubated at 35° C. for 16-24 hr in ambient air for aerobes or for 42-48 hr in the anaerobic environment of the Bactron II anaerobe chamber (Sheldon Manufacturing Co.; Cornelius, Oreg.). Following incubation, the microplates were removed from the incubator and viewed from the bottom using a plate viewer. The MIC values were read and recorded as the lowest concentration of drug that inhibited visible growth of the organism as per CLSI methods (1) and (2).

[2] = system: Viridans group Streptococci clinical isolates; assay: MIC distribution against clinical isolates; format: cell-based; details: 15 Viridans group Streptococci isolates
Source text: as §1, §2

[3] = system: Streptococcus pyogenes clinical isolates; assay: MIC distribution against clinical isolates; format: cell-based
Source text: as §1, §2

Staphylococcus aureus = assay: Broth microdilution MIC, 50 clinical isolates (28 MRSA); format: cell-based
Procedure: as §3, §4, §5, §6, §7, §8

E. coli ATCC 25922 = assay: Broth microdilution MIC (time-kill study); format: cell-based, Escherichia coli; details: E. coli ATCC 25922
B. fragilis ATCC 25285 = assay: Broth microdilution MIC (time-kill study); format: cell-based, Bacteroides fragilis; details: B. fragilis MMX 123 ATCC 25285
[4] = MIC 0.008 μg/mL, 19 S. pyogenes isolates
[5] = MIC ≤0.004 μg/mL, 19 S. pyogenes isolates
[6] = MIC 0.03 μg/mL, 19 S. pyogenes isolates
[7] = MIC 0.06 μg/mL, 19 S. pyogenes isolates

## Penicillin
[1]; MIC 0.008 μg/mL
  Cumulative percentage of isolates inhibited at MIC: 35.2%
  Number of test isolates at MIC: 9
[1]; MIC 1 μg/mL
  Cumulative percentage of isolates inhibited at MIC: 100.0%
[1]; MIC ≤0.004 μg/mL
  Cumulative percentage of isolates inhibited at MIC: 18.5%
  Number of test isolates at MIC: 10
Streptococcus pyogenes
  % S: 100%
  MIC50: <0.004 µg/mL
  MIC90: 0.008 µg/mL
  MIC range: ≤0.004-0.03^ μg/mL
  Mode: <0.004 µg/mL
[2]; MIC 0.008 μg/mL
  Cumulative percentage of isolates inhibited at MIC: 6.7%
  Number of test isolates at MIC: 1
[2]; MIC 1 μg/mL
  Cumulative percentage of isolates inhibited at MIC: 100.0%
[3]
  Cumulative percentage of isolates inhibited at MIC: 100.0%
  Number of test isolates at MIC: 1
[3]; [4]
  Cumulative percentage of isolates inhibited at MIC: 94.7%
  Number of test isolates at MIC: 8
[3]; [5]
  Cumulative percentage of isolates inhibited at MIC: 52.6%
  Number of test isolates at MIC: 10

## piperacillin/tazobactam [piperacillin-tazobactam]
[1]; MIC 0.015 μg/mL
  Cumulative percentage of isolates inhibited at MIC: 1.9%
  Number of test isolates at MIC: 1
[1]; MIC 0.03 μg/mL
  Cumulative percentage of isolates inhibited at MIC: 14.8%
  Number of test isolates at MIC: 7
[1]; MIC 0.06 μg/mL
  Cumulative percentage of isolates inhibited at MIC: 44.4%
  Number of test isolates at MIC: 16
[1]; MIC 1 μg/mL
  Cumulative percentage of isolates inhibited at MIC: 90.7%
  Number of test isolates at MIC: 1
[1]; MIC 2 μg/mL
  Cumulative percentage of isolates inhibited at MIC: 94.4%
  Number of test isolates at MIC: 2
[1]; MIC 4 μg/mL
  Cumulative percentage of isolates inhibited at MIC: 100.0%
  Number of test isolates at MIC: 3
Staphylococcus aureus
  MIC50: 8 µg/mL
  MIC90: 64 µg/mL
  Mode: 64 µg/mL
Staphylococcus aureus; FDA breakpoints
  % R: 48% ^1
  % S: 52% ^1
E. coli ATCC 25922
  MIC: 4/4
Streptococcus pyogenes
  MIC50: 0.06 µg/mL
  MIC90: 0.12 µg/mL
  MIC range: 0.03 to 0.25 µg/mL
  Mode: 0.06 µg/mL
B. fragilis ATCC 25285
  MIC: 8 µg/mL
[2]; MIC 0.015 μg/mL
  Cumulative percentage of isolates inhibited at MIC: 6.7%
  Number of test isolates at MIC: 1
[2]; MIC 0.03 μg/mL
  Cumulative percentage of isolates inhibited at MIC: 26.7%
  Number of test isolates at MIC: 3
[2]; MIC 0.06 μg/mL
  Cumulative percentage of isolates inhibited at MIC: 46.7%
  Number of test isolates at MIC: 3
[2]; MIC 1 μg/mL
  Cumulative percentage of isolates inhibited at MIC: 66.7%
  Number of test isolates at MIC: 1
[2]; MIC 2 μg/mL
  Cumulative percentage of isolates inhibited at MIC: 80.0%
  Number of test isolates at MIC: 2
[2]; MIC 4 μg/mL
  Cumulative percentage of isolates inhibited at MIC: 100.0%
  Number of test isolates at MIC: 3
[2]; MIC […]
  Number of test isolates at MIC: 1
[3]; [6]
  Cumulative percentage of isolates inhibited at MIC: 21.1%
  Number of test isolates at MIC: 4
[3]; [7]
  Cumulative percentage of isolates inhibited at MIC: 89.5%
  Number of test isolates at MIC: 13
[3]; MIC […], 19 S. pyogenes isolates
  Number of test isolates at MIC: 1
